Where “and” joins values, the source holds several entries; their conditions need not be identical. Equal entries are not always repeated.
Target: human PDE1B (Homo sapiens (Human), UniProt Q01064)
Test: PDE1B inhibitory assay (IMAP TR-FRET)
Conditions: 200 nM FAM-cAMP, Calmodulin, CaCl2; for IC50: PDE1B pIC50, negative log of half-maximal molar inhibitory concentration; for PDE1B pIC50: negative log of half-maximal molar inhibitory concentration

Structure (SMILES)	IC50	PDE1B pIC50
COc1ccc(Cn2c(=O)n3ncnc3c3cc(C(O)CN4CCOCC4)cnc32)cc1 (stereo not shown) [Example 267, 9-(1-Hydroxy-2-morpholinoethyl)-6-(4-methoxybenzyl)pyrido[3,2-e][1,2,4]triazolo[1,5-c]pyrimidin-5(6H)-one]	100 to 1000 nM	–
COc1ccc(Cn2c(=O)n3ncnc3c3cc(C(O)CN4C[C@@H](C)O[C@@H](C)C4)cnc32)cc1 (stereo partly shown) [Example 268]	–	>7
COc1ccc(Cn2c(=O)n3ncnc3c3cc(C(F)CN4CCOCC4)cnc32)cc1 (stereo not shown) [Example 269, 9-(1-Fluoro-2-morpholinoethyl)-6-(4-methoxybenzyl)pyrido[3,2-e][1,2,4]triazolo[1,5-c]pyrimidin-5(6H)-one]	100 to 1000 nM	–
COc1ccc(Cn2c(=O)n3ncnc3c3cc(C(F)CN4C[C@@H](C)O[C@@H](C)C4)cnc32)cc1 (stereo partly shown) [Example 270]	–	>7
COc1ccc(Cn2c(=O)n3ncnc3c3cc(C(O)C(F)(F)F)cnc32)cc1 (stereo not shown) [Example 271, 6-(4-Methoxybenzyl)-9-(2,2,2-trifluoro-1-hydroxyethyl)pyrido[3,2-e][1,2,4]triazolo[1,5-c]pyrimidin-5(6H)-one]	100 to 1000 nM	–
COc1ccc(Cn2c(=O)n3ncnc3c3cc(C(N4CCOCC4)C(F)(F)F)cnc32)cc1 (stereo not shown) [Example 272, 6-(4-Methoxybenzyl)-9-(2,2,2-trifluoro-1-morpholinoethyl)pyrido[3,2-e][1,2,4]triazolo[1,5-c]pyrimidin-5(6H)-one]	–	>7
C[C@@H]1CN(Cc2cnc3c(c2)c2ncnn2c(=O)n3Cc2ccc(OC(F)(F)F)cc2)C[C@H](C)O1 [Example 273, 9-(((2S,6R)-2,6-Dimethylmorpholino)methyl)-6-(4-(trifluoromethoxy)benzyl)pyrido[3,2-e][1,2,4]triazolo[1,5-c]pyrimidin-5(6H)-one]	100 to 1000 nM and 1000 to 10000 nM	–
Cc1cc(Cn2c(=O)n3ncnc3c3cc(CN4C[C@@H](C)O[C@@H](C)C4)cnc32)ccc1F [Example 274]	100 to 1000 nM	–
C[C@@H]1CN(Cc2cnc3c(c2)c2ncnn2c(=O)n3Cc2ccc(F)cc2)C[C@H](C)O1 [Example 275]	100 to 1000 nM	–
COc1ccc(Cn2c(=O)n3ncnc3c3cc(CN4C[C@@H](C)O[C@@H](C)C4)cnc32)cc1F [Example 276]	100 to 1000 nM	–
COc1ccc(Cn2c(=O)n3ncnc3c3cc(CN4C[C@@H](C)O[C@@H](C)C4)cnc32)c(F)c1 [Example 277]	–	>7
C[C@@H]1CN(Cc2cnc3c(c2)c2ncnn2c(=O)n3Cc2ccc(F)c(Br)c2)C[C@H](C)O1 [Example 278]	100 to 1000 nM	–
C[C@@H]1CN(Cc2cnc3c(c2)c2ncnn2c(=O)n3Cc2ccc(C#N)cc2)C[C@H](C)O1 [Example 279]	–	<5
C[C@@H]1CN(Cc2cnc3c(c2)c2ncnn2c(=O)n3Cc2ccc(C(C)(C)C)cc2)C[C@H](C)O1 [Example 280]	–	<5
C[C@@H]1CN(Cc2cnc3c(c2)c2ncnn2c(=O)n3Cc2cccc(C#N)c2)C[C@H](C)O1 [Example 281]	–	<5
C[C@@H]1CN(Cc2cnc3c(c2)c2ncnn2c(=O)n3Cc2ccc(S(C)(=O)=O)cc2)C[C@H](C)O1 [Example 282]	–	<5
Cc1ccccc1Cn1c(=O)n2ncnc2c2cc(CN3C[C@@H](C)O[C@@H](C)C3)cnc21 [Example 283]	1000 to 10000 nM	–
C[C@@H]1CN(Cc2cnc3c(c2)c2ncnn2c(=O)n3Cc2cccc(I)c2)C[C@H](C)O1 [Example 284]	100 to 1000 nM	–
C[C@@H]1CN(Cc2cnc3c(c2)c2ncnn2c(=O)n3Cc2cc(F)cc(F)c2)C[C@H](C)O1 [Example 285]	1000 to 10000 nM	–

Structure (SMILES)	IC50	PDE1B pIC50
COc1ccc(Cn2c(=O)n3ncnc3c3cc(CN4C[C@@H](C)O[C@@H](C)C4)cnc32)c(Br)c1 [Example 286]	1000 to 10000 nM	–
COc1cc(F)c(Cn2c(=O)n3ncnc3c3cc(CN4C[C@@H](C)O[C@@H](C)C4)cnc32)c(F)c1 [Example 287]	–	>7
C[C@@H]1CN(Cc2cnc3c(c2)c2ncnn2c(=O)n3Cc2ccc3cnn(C)c3c2)C[C@H](C)O1 [Example 288]	–	<5
C[C@@H]1CN(Cc2cnc3c(c2)c2ncnn2c(=O)n3Cc2ccc(-n3cccn3)cc2)C[C@H](C)O1 [Example 289]	–	<5
C[C@@H]1CN(Cc2cnc3c(c2)c2ncnn2c(=O)n3Cc2ccc(OC(F)F)cc2F)C[C@H](C)O1 [Example 290]	100 to 1000 nM	–
COc1c(F)cc(Cn2c(=O)n3ncnc3c3cc(CN4C[C@@H](C)O[C@@H](C)C4)cnc32)cc1F [Example 291]	100 to 1000 nM	–
COc1ccc(Cn2c(=O)n3ncnc3c3cc(CN4C[C@@H](C)O[C@@H](C)C4)cnc32)c(F)c1F [Example 292]	100 to 1000 nM	–
C[C@@H]1CN(Cc2cnc3c(c2)c2ncnn2c(=O)n3Cc2ccccc2SC(F)(F)F)C[C@H](C)O1 [Example 293]	–	<5
C[C@@H]1CN(Cc2cnc3c(c2)c2ncnn2c(=O)n3Cc2ccc(F)c(Cl)c2)C[C@H](C)O1 [Example 294]	100 to 1000 nM	–
C[C@@H]1CN(Cc2cnc3c(c2)c2ncnn2c(=O)n3Cc2ccc(Cl)c(Cl)c2)C[C@H](C)O1 [Example 295]	100 to 1000 nM	–
COc1ccc(Cn2c(=O)n3ncnc3c3cc(CN4C[C@@H](C)O[C@@H](C)C4)cnc32)c(Cl)c1 [Example 296]	100 to 1000 nM	–
C[C@@H]1CN(Cc2cnc3c(c2)c2ncnn2c(=O)n3Cc2ccccc2OC(F)F)C[C@H](C)O1 [Example 297]	–	<5
C[C@@H]1CN(Cc2cnc3c(c2)c2ncnn2c(=O)n3Cc2ccc(Cl)c(F)c2)C[C@H](C)O1 [Example 298]	100 to 1000 nM	–
C[C@@H]1CN(Cc2cnc3c(c2)c2ncnn2c(=O)n3Cc2cc(F)cc(Cl)c2)C[C@H](C)O1 [Example 299]	1000 to 10000 nM	–
C[C@@H]1CN(Cc2cnc3c(c2)c2ncnn2c(=O)n3Cc2ccc(N3CCCC3=O)cc2)C[C@H](C)O1 [Example 300]	–	<5
CCOc1ccc(Cn2c(=O)n3ncnc3c3cc(CN4C[C@@H](C)O[C@@H](C)C4)cnc32)cc1 [Example 301]	100 to 1000 nM	–
C[C@@H]1CN(Cc2cnc3c(c2)c2ncnn2c(=O)n3Cc2ccc(F)c(F)c2)C[C@H](C)O1 [Example 302]	100 to 1000 nM	–
CSc1ccc(Cn2c(=O)n3ncnc3c3cc(CN4C[C@@H](C)O[C@@H](C)C4)cnc32)cc1 [Example 303]	100 to 1000 nM	–
